Measurements taken from patent publication EP4667464A1 (Cyrus Therapeutics Inc., priority 2023, dated 2024).
Where two headings read alike, the source gives them in different places.

Key:
[1] = system: lung cancer cell line NCI-H358 having the KRAS G12C variant; experiment: Cancer cell growth inhibition, 3D spheroids (CellTiter-Glo 3D); format: cell-based; settings: read-out: H358 cell viability
Procedure: Thereafter, the plate with the cells cultured was adapted to room temperature for 10 minutes, and then 50 µL of CellTiter-Glo® 3D Cell Viability Assay (PROMEGA, G9683) solution was dispensed, and reacted on a horizontal stirrer at a speed of 300 RPM for 30 minutes to induce the cell lysis. […] Thereafter, based on the measured values, the degree of cell growth in the well treated with each compound was calculated when the final cell density value of the well not treated with the test substance was set to 100%.

KRAS G12C::SOS1 = molecular target: T1, KRAS G12C::SOS1 (Homo sapiens, UniProt Q07889); experiment: KRAS G12C::SOS1 protein-protein interaction (PPI) inhibition assay (HTRF); format: binding
T1 construct: purchased CISBIO 64KRASG12PEH
T1 sequence (Q07889 1-1333): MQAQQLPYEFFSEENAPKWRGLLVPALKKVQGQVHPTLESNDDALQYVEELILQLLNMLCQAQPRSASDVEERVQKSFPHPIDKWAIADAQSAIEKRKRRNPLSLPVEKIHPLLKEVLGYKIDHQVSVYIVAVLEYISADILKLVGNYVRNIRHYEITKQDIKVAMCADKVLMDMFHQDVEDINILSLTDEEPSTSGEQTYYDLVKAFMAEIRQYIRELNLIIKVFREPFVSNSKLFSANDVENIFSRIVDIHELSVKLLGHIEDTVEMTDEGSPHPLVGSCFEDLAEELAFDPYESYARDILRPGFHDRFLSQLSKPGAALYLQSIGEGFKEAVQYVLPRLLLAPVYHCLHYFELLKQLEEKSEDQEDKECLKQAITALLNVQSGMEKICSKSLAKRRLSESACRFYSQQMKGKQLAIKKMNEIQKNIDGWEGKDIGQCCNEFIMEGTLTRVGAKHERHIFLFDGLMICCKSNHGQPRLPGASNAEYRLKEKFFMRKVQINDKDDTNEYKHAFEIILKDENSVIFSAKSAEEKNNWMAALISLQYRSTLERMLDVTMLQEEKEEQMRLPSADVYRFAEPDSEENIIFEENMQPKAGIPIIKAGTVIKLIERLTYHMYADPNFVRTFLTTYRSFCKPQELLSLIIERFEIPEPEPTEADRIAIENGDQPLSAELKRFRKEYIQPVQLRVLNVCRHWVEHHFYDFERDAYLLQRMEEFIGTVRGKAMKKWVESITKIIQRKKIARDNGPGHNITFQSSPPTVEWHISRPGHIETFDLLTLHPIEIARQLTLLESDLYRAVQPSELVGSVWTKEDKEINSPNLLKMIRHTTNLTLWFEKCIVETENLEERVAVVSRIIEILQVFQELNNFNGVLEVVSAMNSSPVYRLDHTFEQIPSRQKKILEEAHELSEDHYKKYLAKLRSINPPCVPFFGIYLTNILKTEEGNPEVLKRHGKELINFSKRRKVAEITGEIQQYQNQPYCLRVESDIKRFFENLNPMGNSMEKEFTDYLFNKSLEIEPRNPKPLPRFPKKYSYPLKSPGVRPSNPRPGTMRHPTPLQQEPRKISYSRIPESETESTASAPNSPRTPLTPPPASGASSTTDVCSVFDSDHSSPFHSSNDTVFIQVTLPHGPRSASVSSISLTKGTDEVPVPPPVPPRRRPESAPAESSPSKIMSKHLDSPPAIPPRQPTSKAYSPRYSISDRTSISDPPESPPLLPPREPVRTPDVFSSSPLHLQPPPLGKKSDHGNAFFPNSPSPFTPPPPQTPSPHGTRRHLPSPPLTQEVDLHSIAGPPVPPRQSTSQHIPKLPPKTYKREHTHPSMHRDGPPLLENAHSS
How it was run: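 Compounds, at eight 3-fold dilutions from 3 µM, were mixed with GTP-loaded Tag1-KRAS G12C, Tag2-SOS1 and a terbium-cryptate donor plus XL665 acceptor antibody pair. After 2 h at room temperature, time-resolved FRET reported the KRAS–SOS1 interaction.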

SOS1 = molecular target: T2, SOS1 (Homo sapiens, UniProt Q07889); experiment: SOS-catalyzed nucleotide exchange assay (HTRF, SOS1-mediated GTP loading of KRAS G12D); format: biochemical
T2 construct: HIS-SOS1cat (160 nM; Cytoskeleton, US); His (N); purchased Cytoskeleton
T2 sequence (Q07889 564-1049 limits assumed): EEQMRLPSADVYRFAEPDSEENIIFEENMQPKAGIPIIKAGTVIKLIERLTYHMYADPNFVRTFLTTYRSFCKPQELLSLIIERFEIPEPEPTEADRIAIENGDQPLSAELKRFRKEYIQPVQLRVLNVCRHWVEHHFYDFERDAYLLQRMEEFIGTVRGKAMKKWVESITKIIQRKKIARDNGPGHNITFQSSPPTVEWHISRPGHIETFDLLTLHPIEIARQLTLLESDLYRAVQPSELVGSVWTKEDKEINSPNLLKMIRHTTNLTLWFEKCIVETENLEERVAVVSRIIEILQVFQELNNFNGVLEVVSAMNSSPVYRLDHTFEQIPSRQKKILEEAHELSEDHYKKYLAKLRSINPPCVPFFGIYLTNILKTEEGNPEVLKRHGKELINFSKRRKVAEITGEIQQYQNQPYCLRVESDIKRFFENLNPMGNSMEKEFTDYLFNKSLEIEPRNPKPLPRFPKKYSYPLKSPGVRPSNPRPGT

[2] = Homo sapiens, NCI-H358, 120 h, 3D spheroids, 0.002-10 µM, 5 days
[3] = 8 concentrations from 3 µM, three replicates, read-out: KRAS G12C::SOS1 PPI
[4] = GST-KRAS G12D, HIS-SOS1cat, compound 128 pM to 10 µM, read-out: SOS-catalyzed nucleotide exchange assay

Compound	IC50 [1, 2] [nM]	IC50 (KRAS G12C::SOS1; [3]) [nM]	IC50 (SOS1; [4]) [nM]	also measured
C[C@@H](NC(=O)c1ccc(=O)n(-c2cncc(-c3cnnn3C)c2)n1)c1cc(N)cc(C(F)F)c1 [Example 2, N-[(1R)-1-[3-amino-5-(difluoromethyl)phenyl]ethyl]-1-[5-(3-methyltriazol-4-yl)-3-pyridyl]-6-oxo-pyridazine-3-carboxamide]	< 1000			IC50 (KRAS G12C::SOS1): 50 to 150 nM; IC50 (SOS1): 50 to 150 nM
(R)-3-bromo-N-(1-(2-fluoro-3-(trifluoromethyl)phenyl)ethyl)-5'-(1-methyl-1H-1,2,3-triazol-5-yl)-2-oxo-2H-[1,3'-bipyridine]-5-carboxamide [Example 1-22]		50 to 150	> 150	IC50 ([1]; 3D spheroids, 0.002-10 µM, 5 days): < 1000 nM
C[C@@H](NC(=O)c1ccc(=O)n(-c2cnnc(-c3cnnn3C)c2)n1)c1cccc(C(F)(F)F)c1F [Example 4, N-[(1R)-1-[2-fluoro-3-(trifluoromethyl)phenyl]ethyl]-1-[6-(3-methyltriazol-4-yl)pyridazin-4-yl]-6-oxo-pyridazine-3-carboxamide]				IC50 ([1]; Homo sapiens, NCI-H358, 120 h): > 3000 nM; IC50 (KRAS G12C::SOS1): > 150 nM; IC50 (SOS1): > 150 nM
Cc1cc(C(=O)N[C@H](C)c2cccc(C(F)(F)CO)c2F)nn(-c2cncc(-c3cnnn3C)c2)c1=O [Example 1-23, N-[(1R)-1-[3-(1,1-difluoro-2-hydroxy-ethyl)-2-fluoro-phenyl]ethyl]-5-methyl-1-[5-(3-methyltriazol-4-yl)-3-pyridyl]-6-oxo-pyridazine-3-carboxamide]	< 1000	< 50	< 50	
C[C@@H](NC(=O)c1cc(C2CC2)c(=O)n(-c2cncc(-c3cnnn3C)c2)c1)c1cccc(C(F)(F)F)c1F [Example 7, (R)-3-cyclopropyl-N-(1-(2-fluoro-3-(trifluoromethyl)phenyl)ethyl)-5'-(1-methyl-1H-1,2,3-triazol-5-yl)-2-oxo-2H-[1,3'-bipyridine]-5-carboxamide]	< 1000	< 50	< 50	
CC(C)n1nncc1-c1cncc(-n2nc(C(=O)N[C@H](C)c3cccc(C(F)(F)F)c3F)cc(CO)c2=O)c1 [Example 6-2, N-{(1R)-1-[2-fluoro-3-(trifluoromethyl)phenyl]ethyl}-1-[5-(1-isopropyl-1H-1,2,3-triazol-5-yl)-3-pyridyl]-5-(hydroxymethyl)-6-oxo-1,6-dihydropyridazine-3-carboxamide]	< 1000	50 to 150	< 50	
C[C@@H](NC(=O)c1ccc(=O)n(-c2cnnc(-c3cnnn3C)c2)n1)c1cccc(C(F)(F)CO)c1F [Example 1-37, N-{(1R)-1-[3-(1,1-difluoro-2-hydroxyethyl)-2-fluoro-phenyl]ethyl}-6'-(1-methyl-1H-1,2,3-triazol-5-yl)-6-oxo-6H-[1,4'-bipyridazine]-1,6-dihydro-3-carboxamide]	> 3000	50 to 150	50 to 150	
C[C@@H](NC(=O)c1ccc(=O)n(-c2cncc(-c3cnnn3C)c2)c1)c1cccc(C(F)(F)F)c1F [Example 1-24, N-[(1R)-1-[2-fluoro-3-(trifluoromethyl)phenyl]ethyl]-1-[5-(3-methyltriazol-4-yl)-3-pyridyl]-6-oxo-pyridine-3-carboxamide]	< 1000	< 50	< 50	
C[C@@H](NC(=O)c1ccc(=O)n(-c2cnc(N3CCOCC3)c(-c3cnnn3C)c2)n1)c1cccc(C(F)(F)F)c1F [Example 1-46, N-{(R)-1-[2-fluoro-3-(trifluoromethyl)phenyl]ethyl}-1-[5-(1-methyl-1H-1,2,3-triazol-5-yl)-6-morpholino-3-pyridyl]-6-oxo-1,6-dihydropyridazine-3-carboxamide]				IC50 ([1]; Homo sapiens, NCI-H358, 120 h): < 1000 nM; IC50 (KRAS G12C::SOS1; read-out: KRAS G12C::SOS1 PPI, 8 concentrations from 3 µM, three replicates): 50 to 150 nM; IC50 (SOS1; read-out: SOS-catalyzed nucleotide exchange assay, GST-KRAS G12D, HIS-SOS1cat, compound 128 pM to 10 µM): 50 to 150 nM
C[C@@H](NC(=O)c1ccc(=O)n(-c2cncc(-c3cnnn3C)c2)n1)c1cccc(C(F)F)c1F [Example 1-1, N-[(1R)-1-[3-(difluoromethyl)-2-fluoro-phenyl]ethyl]-1-[5-(3-methyltriazol-4-yl)-3-pyridyl]-6-oxo-pyridazine-3-carboxamide]	< 1000	< 50	50 to 150	
Cc1cc(C(=O)N[C@H](C)c2cc(N)cc(C(F)(F)F)c2F)nn(-c2cncc(-c3cnnn3C)c2)c1=O [Example 2-5, N-[(1R)-1-[5-amino-2-fluoro-3-(trifluoromethyl)phenyl]ethyl]-5-methyl-1-[5-(3-methyltriazol-4-yl)-3-pyridyl]-6-oxo-pyridazine-3-carboxamide]	< 1000	< 50	< 50	
C[C@@H](NC(=O)c1ccc(=O)n(-c2cnnc(-c3ccnn3C)c2)n1)c1cccc(C(F)(F)CO)c1F [Example 1-20, N-[(1R)-1-[3-(1,1-difluoro-2-hydroxy-ethyl)-2-fluoro-phenyl]ethyl]-1-[6-(2-methylpyrazol-3-yl)pyridazin-4-yl]-6-oxo-pyridazine-3-carboxamide]	> 3000	> 150	50 to 150	
CCn1nncc1-c1cncc(-n2nc(C(=O)N[C@H](C)c3cccc(C(F)(F)F)c3F)ccc2=O)c1 [Example 1-12, N-[(1R)-1-[2-fluoro-3-(trifluoromethyl)phenyl]ethyl]-1-[5-(3-ethyltriazol-4-yl)-3-pyridyl]-6-oxo-pyridazine-3-carboxamide]	< 1000	50 to 150	< 50	
C[C@@H](NC(=O)c1cc(CO)c(=O)n(-c2cncc(-c3cnnn3C3CC3)c2)n1)c1cccc(C(F)(F)F)c1F [Example 6-3]				IC50 ([1]; Homo sapiens, NCI-H358, 120 h): < 1000 nM; IC50 (KRAS G12C::SOS1): < 50 nM; IC50 (SOS1): < 50 nM
C[C@@H](NC(=O)c1ccc(=O)n(-c2cncc(-c3cnnn3C)c2)n1)c1cc(N)cc(C(F)(F)F)c1 [Example 1-9, N-[(1R)-1-[3-amino-5-(trifluoromethyl)phenyl]ethyl]-1-[5-(3-methyltriazol-4-yl)-3-pyridyl]-6-oxo-pyridazine-3-carboxamide]	< 1000	< 50	< 50	
C[C@@H](NC(=O)c1ccc(=O)n(-c2cncc(-c3cnnn3C)c2)n1)c1cc(N)cc(C(F)(F)F)c1F [Example 2-1, N-[(1R)-1-[5-amino-2-fluoro-3-(trifluoromethyl)phenyl]ethyl]-1-[5-(3-methyltriazol-4-yl)-3-pyridyl]-6-oxo-pyridazine-3-carboxamide]	< 1000	< 50	< 50	
